What was measured:
[1] = target: T1, Macrophage migration inhibitory factor (Homo sapiens, UniProt P14174); test: (§1) Inhibition of C-terminal His-tagged recombinant human MIF tautomerase activity expressed in Escherichia coli BL21 using 4-hydroxyphenyl pyruvic acid as substrate preincubated for 15 mins followed by substrate addition and measured for 10 mins in presence of 0.5 mM EDTA by UV absorbance analysis
T1 sequence (P14174 whole entry): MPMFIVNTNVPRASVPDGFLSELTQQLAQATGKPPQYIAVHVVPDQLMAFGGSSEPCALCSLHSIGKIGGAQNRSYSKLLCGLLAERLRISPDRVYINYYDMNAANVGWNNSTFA

[2] = target: T1, Macrophage migration inhibitory factor; test: as §1, with “absorbance based Cheng-Prusoff equation” for “absorbance”
[3] = Solubility of compound at >=50 uM; type: physicochemical
[4] = Solubility of compound in pH 7.4 PBS buffer by shake-flask method; type: physicochemical
[5] = target: T1, Macrophage migration inhibitory factor; test: as §1, with “absence” for “presence”, “of” for “of 0.5 mM”, “absorbance based Cheng-Prusoff equation” for “absorbance”
[6] = target: T1, Macrophage migration inhibitory factor; test: Inhibition of recombinant human MIF tautomerase activity expressed in Escherichia coli using 4-hydroxyphenyl pyruvic acid as substrate preincubated for 30 mins followed by substrate addition and measured for 175 secs
[7] = target: T1, Macrophage migration inhibitory factor; test: Binding affinity to RED-Tris-NTA-labelled C-terminal His-tagged recombinant human MIF tautomerase activity expressed in Escherichia coli BL21 by microscale thermophoresis assay

IC50 [1] [µM]	Ki [2] [µM]	Compound	other results
62	43	O=C(Cc1cc2ccccc2[nH]1)NCc1cn(-c2ccc(O)cc2)nn1	
53	36	O=C(NCc1cn(-c2ccc(O)cc2)nn1)c1ccc(F)cc1	
10	6.9	CCCCCc1cn(-c2ccc(O)cc2)nn1	
	0.96	O=C(NCc1cn(-c2ccc(O)c(F)c2)nn1)c1cc2cc(Cl)ccc2[nH]1	solubility [3]: Insoluble; solubility thermodynamic [4]: 28 µM
28	19	Cc1ccc(C(=O)NCc2cn(-c3ccc(O)cc3)nn2)s1	
10	6.9	O=C(NCc1cn(-c2ccc(O)cc2)nn1)c1cc2ccccc2[nH]1	
43	30	O=C(NCc1cn(-c2ccc(O)cc2)nn1)c1ccc[nH]1	
7.2	5	Oc1ccc(-n2cc(-c3ccccn3)nn2)cc1	Ki [5]: 2.9 µM; Ki [6]: 8.8 µM
33	23	O=C(NCc1cn(-c2ccc(O)cc2)nn1)c1ccccc1	
4.8	3.3	O=C(NCc1cn(-c2ccc(O)c(F)c2)nn1)c1cc2ccccc2[nH]1	solubility thermodynamic [4]: 41.4 µM; Kd [7]: 3.63 µM
26	17	Oc1ccc(-n2cc(C3CCCCC3)nn2)cc1	
41	28	O=C(NCc1cn(-c2ccc(O)cc2)nn1)c1cccs1	
47	32	O=C(CCc1cn(-c2ccc(O)cc2)nn1)Nc1ccccc1	
		Oc1ccc(-n2cc(-c3ccc4ccccc4n3)nn2)cc1	solubility thermodynamic [4]: 2.2 µg/mL
33	23	COC(=O)CCCc1cn(-c2ccc(O)cc2)nn1	
38	26	O=C(NCc1cn(-c2ccc(O)cc2)nn1)c1ccc(Br)o1	
9.5	6.5	C#CCCCCc1cn(-c2ccc(O)cc2)nn1	

Source: ChEMBL document CHEMBL4715839, “Structure-activity relationships for binding of 4-substituted triazole-phenols to macrophage migration inhibitory factor (MIF)” (Eur J Med Chem, 2020)
